Assays:
HT-29 = conditions: in vitro; cited from earlier work
[1] = system: aberrant blood cells of thalassemia; conditions: in vitro; cited from earlier work
[2] = system: aberrant blood cells of sickle cell anemia; conditions: in vitro; cited from earlier work
HL-60 = conditions: in vitro; cited from earlier work
leukemia [3] = conditions: intravenous infusion, 500 mg/kg per day; cited from earlier work
[4] = plasma, humans and rabbits; cited from earlier work
[5] = intravenous infusion, 500 mg/kg per day; cited from earlier work
thalassemia = conditions: continuous intravenous infusions, 500 mg/kg/day or higher, several days; cited from earlier work
[6] = system: 1,2-dimethylhydraxine-induced rat intestine neoplasia; conditions: equivalent intake to tributyrin at 5% of feed; cited from earlier work
sickle cell = conditions: continuous intravenous infusions, 500 mg/kg/day or higher, several days; cited from earlier work
leukemia [7] = conditions: intravenous infusions 500 mg/kg body weight per day for several days, child with leukemia; cited from earlier work
[8] = continuous intravenous infusions, 500 mg/kg/day or higher, several days; cited from earlier work
[9] = system: cancer or transformed cells lines; conditions: combinations of sodium butyrate and active Vitamin D forms; cited from earlier work
[10] = set-up: species or system male Sprague Dawley rats; conditions: rat, in vivo
Procedure: Three male Sprague Dawley rats (Harlan Sprague Dawley, Houston, Tex.) weighing approximately 306 g were fasted overnight and gavaged with 1 gm of tributyrin (Sigma catalog #T-5142, 99% pure, 302.4M) directly into the stomach. A fourth rat-was not gavaged. Rats were sacrificed at time zero (without gavage) or 0.5, 2 and 4 hours post gavage. At time of sacrifice, each rat was anesthetized with a mixture of ketamine (87 mg/kg) and rompun (13 mg/kg). A cardiac puncture was performed and approximately 2 mls of blood was withdrawn into a heparinized vacutainer tube. Blood was centrifuged at 2000×g for 7 minutes and plasma was withdrawn and stored frozen until analysis. At the time of analysis, plasma concentration was determined by the method of Remsey and Demigne (1974) using chromatographic methods as described by Boffa et al. (1992).
A single oral dose bolus of 1 gm of tributyrin was administered to rats, and the plasma levels of free butyrate measured over 4 hours.

[11] = system: chemically induced colon cancer; conditions: 5% of the feed, mice; cited from earlier work

SMILES: CCCC(=O)O [butyrate, butyric acid]
- concentration at which butyrate has differentiation action (HT-29): 0.3 to 5 mM
- concentration giving desirable changes of aberrant blood cells [1]: about 0.05 mM
- concentration giving desirable changes of aberrant blood cells [2]: about 0.05 mM
- concentration at which butyrate has differentiation action (HL-60): 0.3 to 5 mM

SMILES: CCCC(=O)[O-].[Na+] [sodium butyrate]
- clinical response (leukemia [3]): no clinical response
- half-life [4]: about 6 minutes
- metabolic half-life [5]: about 6 minutes
- success in treating thalassemia patients (thalassemia): success
- promoting or cancer increasing effect [6]: promoting or cancer increasing effect
- success in treating sickle cell patients (sickle cell): success
- remission (leukemia [7]): short-lived remission
- metabolism of butyrate [8]: apparently rapidly metabolized
- effect of combination with active Vitamin D forms on differentiation [9]: additive or synergistic effects

SMILES: CCCC(=O)OCC(COC(=O)CCC)OC(=O)CCC [tributyrin, glyceryl tributyrate]
- absorption of butyrate [10]: very rapidly absorbed
- return of plasma butyrate to baseline [10]: almost back to baseline at 4 hours
- half-life of butyrate ([10]; po): about 40 minutes
- peak level of butyrates ([10]; po): 0.35 mM
- time over 0.10 mM butyrate ([10]; po): about 2 hours
- prevention of chemically induced colon cancer [11]: ineffective
- promoting or cancer increasing effect [11]: did not produce the promoting or cancer increasing effect

From patent publication US5645852A, “Butyric ester cyto-differtiating agents” (Sloan-Kettering Institute for Cancer Research, priority 1995, dated 1997)
